For assay [1], the target named is T1, Human tissue plasminogen activator (tPA) (Two chains, Sigma) (Homo sapiens, UniProt P00750).
T1 construct: purchased Sigma
The experiment in a line: In vitro chromogenic assay for tissue plasminogen activator. The class given is biochemical. The following applies: substrate concentration stated equal to Km; 10 nM tPA, pH 7.5, ambient temperature; read-out: Km (S2288). As to the method: (§1) The activities were determined as an initial rate of cleavage of the peptide p-nitroanilide by the enzyme. The cleavage product, p-nitroaniline, absorbs at 405 nm with a molar extinction coefficient of 9920 M^-1 cm^-1.
(§2) 50 mM TrisHCl, 150 mM NaCl, 2.5 mM CaCl2, and 0.1% polyethylene glycol 6000, pH 7.5.
3. Human tissue plasminogen activator (tPA) (Two chains, Sigma) stock solution: 1 mg/mL, stored at -80° C. (working solution (2×): 1361 ng/mL in assay buffer, prepare prior to use).
3. S2288 (tPA assay) stock solution: 10 mM in dH2 O, stored at 4° C. (working solution (4×):
1484 μM in assay buffer).
Assays were performed in 96-well microtiter plates in a total volume of 200 μl. […] Concentrations of the standard inhibitor compound in the assay were from 5 μM to 0.021 μM in 1 to 3 dilution. Concentration of the test compounds in the assay typically were from 10 μM to 0.041 μM in 1 to 3 dilution. […]
(§3) The enzyme kinetics were measured at 405 nm at 10 seconds intervals for five minutes in a THERMOmax plate reader at ambient temperature.
(§4) Enzyme rates were calculated as mOD/min based on the first two minutes readings. The IC50 values were determined by fitting the data to the log-logit equation (linear) or the Morrison equation (non-linear) with an EXCEL spread-sheet. […]

Assay [2] concerns the target T2, Human thrombin (Homo sapiens, UniProt P00734).
T2 construct: Human thrombin stock solution; purchased Enzyme Research Lab
The experiment in a line: In vitro chromogenic assay for thrombin. In kind it is biochemical. The following applies: substrate concentration stated equal to Km; 20 nM thrombin, pH 7.5, ambient temperature; read-out: Km (S2302). As to the method:
as §1, §2
2. Human thrombin stock solution: Stored at -80° C. (working solution (2×): 1200 ng/mL or 40 nM in assay buffer, prepare prior to use).
2. S2302 (Thrombin assay) stock solution: 10 mM in dH2 O, stored at 4° C. (working solution (4×): 1200 μM in assay buffer).
Assays were performed in 96-well microtiter plates in a total volume of 200 μl. […] Concentrations of the standard inhibitor compound in the assay were from 5 μM to 0.021 μM in 1 to 3 dilution. Concentration of the test compounds in the assay typically were from 10 μM to 0.041 μM in 1 to 3 dilution. For potent test compounds, the concentrations used in the factor Xa assays were further diluted 100 fold (100 nM to 0.41 nM) or 1000 fold (10 nM to 0.041 nM). […]
as §3, §4

SMILES strings stand for the structures. Non-standard residues stand in square brackets, D forms with d. Residues, ends and D or L forms follow the SMILES beside them. *: point of attachment. pNA = O=[N+]([O-])c1ccc(N*)cc1

T1 sequence (P00750 311-562 limits assumed): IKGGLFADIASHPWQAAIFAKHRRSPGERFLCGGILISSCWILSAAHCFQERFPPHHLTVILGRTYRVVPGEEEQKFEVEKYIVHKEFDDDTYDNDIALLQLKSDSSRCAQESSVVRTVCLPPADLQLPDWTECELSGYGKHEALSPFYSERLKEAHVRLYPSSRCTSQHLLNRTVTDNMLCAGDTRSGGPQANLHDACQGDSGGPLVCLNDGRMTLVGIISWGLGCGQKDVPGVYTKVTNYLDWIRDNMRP
T1 sequence (P00750 36-310 partner limits assumed): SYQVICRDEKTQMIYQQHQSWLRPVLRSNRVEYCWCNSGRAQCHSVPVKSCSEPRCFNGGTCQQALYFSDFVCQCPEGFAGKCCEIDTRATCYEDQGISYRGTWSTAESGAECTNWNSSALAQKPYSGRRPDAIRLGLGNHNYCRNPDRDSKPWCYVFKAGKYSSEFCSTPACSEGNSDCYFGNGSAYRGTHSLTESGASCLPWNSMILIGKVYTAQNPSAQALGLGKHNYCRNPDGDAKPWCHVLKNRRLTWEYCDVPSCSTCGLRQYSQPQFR

On to `CC[C@@H](C)[C@@H](N)C(=O)N1CCC[C@H]1C(=O)N[C@@H](CCCN=C(N)N)C(=O)Nc1ccc([N+](=O)[O-])cc1` [Example S2288] (H-[dI]-Pro-Arg-pNA), for which the Km in assay [1] came to 371 µM.

On to `N=C(N)NCCC[C@H](NC(=O)[C@H](Cc1ccccc1)NC(=O)[C@H]1CCCN1)C(=O)Nc1ccc([N+](=O)[O-])cc1` [Example S2302] (H-[dP]-Phe-Arg-pNA), for which, in assay [2], the Km was 300 µM.

The term Km denotes the concentration of substrate that gives half-maximal velocity.
